US20080214563A1, “Benzimidazole Thiophene Compounds As Plk Modulators” (priority 2005, published 2008)

How the values were obtained:
Colo 205 = assay: Cell-Titer Glo Cell Growth Inhibition Assay, COLO205; type: cell-based; conditions: Homo sapiens, CellTiter-Glo, 72 h, read-out: CTG COLO205 IC50
Method: (§1) A549-L (human lung), BT474 (human breast), Colo 205 (human colon), H1299 (human lung), Hela (human cervix), HCT-116 (human colon), HN5 (human head and neck), HT29 (human colon), LNCap (human prostate), MCF7 (human breast), MDA-MB468 (human breast), MX-1 (human breast), RPMI 8226 (human peripheral blood), SKOV3 (human ovary) and P388 (murine leukemia) cell lines were cultured in RPMI1640 containing 10% fetal bovine serum at 37° C. in a 5% CO2 incubator. Cell lines were split into T75 flasks (Falcon #353136) two to three days prior to assay set up at density which yields approximately 70-80% confluency at time of harvest for assay. Cells were harvested using 0.25% trypsin with EDTA (Glibco/Invitrogen #25200-056), Cell counts were performed on cell suspensions using Trypan Blue exclusion staining, cells were then plated in 105 uL of culture media per well at the following densities in 96 well Costar #3916 black flat bottom plates: All human cell lines were plated at 500 cells/well. P388 were plated at 250 cells/well. All plates were placed at 5% CO2 37° C. overnight and then test compounds were added the following day. One plate of each cell type is treated with CellTiter-Glo (Promega #G7573) for a day 0 proliferation measurement and read as described below. The test compounds are prepared in clear U bottom polypropylene 96 well plates (Falcon #35-1190 with consecutive two fold dilutions. 9 uL of these dilutions was added into each well of the cell plates. The final concentration of DMSO in all wells is 0.15%. Cells were incubated at 37° C., 5% CO2 for 72 h. Following 72 h of incubation with compounds each plate was developed and read. CellTiter-Glo reagent was added to assay plates using a volume equivalent to the cell culture volume in the wells. Plates were shaken for approximately two minutes and incubated at room temperature for approximately 15 min and the chemiluminescent signal is read on the Victor V or Envison 2100 reader. […] Concentration of compound that inhibited 50% of cell growth (IC50) was analysis by 4 or 6 parameter fit of data using XLfit, value of no cell addition was subtracted from all samples for background.

MX-1 = assay: Cell-Titer Glo Cell Growth Inhibition Assay, MX-1; type: cell-based; conditions: Homo sapiens, MX1, CellTiter-Glo, 72 h, read-out: CTG MX-1 IC50
Method: as §1

SKOV3 = assay: Cell-Titer Glo Cell Growth Inhibition Assay, SKOV-3; type: cell-based; conditions: Homo sapiens, SK-OV-3, CellTiter-Glo, 72 h, read-out: CTG SKOV-3 IC50
Method: as §1

HCT116 = assay: Methylene Blue Cell Growth Inhibition Assay, HCT116; type: cell-based; conditions: Homo sapiens, HCT-116, 72 h, read-out: MEB HCT116 IC50
Method: (§2) Normal human foreskin fibroblasts (HFF), human colon (HCT116, RKO), lung (H460, A549) and breast (MCF7) tumor cell lines were cultured in high glucose DMEM (Life Technologies) containing 10% fetal bovine serum (FBS) at 37° C. in a humidified 5% CO2, 95% air incubator. Cells were harvested using trypsin/EDTA, counted using a haemocytometer, and plated in 100 μL of culture media per well, at the following densities, in a 96-well tissue culture plate (Falcon 3075): HFF 5,000 cells/well, HCT116 3,000 cells/well, RKO 2,500 cells/well, H460 2,500 cells/well, A549 5,000 cells/well, MCF7 4,000 cells/well. The next day, compounds were diluted in low glucose DMEM containing 100 μg/mL gentamicin, at twice the final required concentration, from 10 mM stock solutions in DMSO. 100 μL/well of these dilutions were added to the 100 μL of media currently in the assay plates. Medium containing 0.6% DMSO was added to control wells. The final concentration of DMSO in all wells was 0.3%. Cells were incubated at 37° C., 5% CO2 for 72 h. Medium was removed by aspiration. Cell biomass was estimated by staining cells with 80 μL per well methylene blue (Sigma M9140, 0.5% in 50:50 ethanol:water), and incubation at room temperature for 30-60 min. Stain was removed by aspiration and the plates rinsed by immersion in water, then air-dried. To release stain from the cells, 100 μL of solubilization solution was added (1% N-lauroyl sarcosine, Sodium salt, Sigma L5125, in PBS), and plates were shaken gently for about 30 min. Optical density at 620 nm was measured on a microplate reader. Percent inhibition of cell growth was calculated relative to vehicle treated control wells. Concentration of compound that inhibits 50% of cell growth (IC50) was interpolated using nonlinear regression (Levenberg-Marquardt) and the equation, y=Vmax*(1−(x/(K+x)))+Y2, where “K” was equal to the IC50.

P388 = assay: Cell-Titer Glo Cell Growth Inhibition Assay, P388; type: cell-based, murine; conditions: Mus musculus, CellTiter-Glo, 72 h, read-out: CTG P388 IC50
Method: as §1

A549-L = assay: Cell-Titer Glo Cell Growth Inhibition Assay, A549-L; type: cell-based; conditions: Homo sapiens, CellTiter-Glo, 72 h, read-out: CTG A549-L IC50
Method: as §1

RKO = assay: Methylene Blue Cell Growth Inhibition Assay, RKO; type: cell-based; conditions: Homo sapiens, 72 h, read-out: MEB RKO IC50
Method: as §2

HCT-116 = assay: Cell-Titer Glo Cell Growth Inhibition Assay, HCT116; type: cell-based; conditions: Homo sapiens, CellTiter-Glo, 72 h, read-out: CTG HCT116 IC50
Outline: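 Human tumour cells in RPMI1640 + 10% FBS, plated at 500 cells/well, rested overnight, then given two-fold compound dilutions (0.15% DMSO) for 72 h at 37° C, 5% CO2. CellTiter-Glo luminescence read against a day-0 plate; IC50 from 4- or 6-parameter fit after no-cell background subtraction.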

HT29 = assay: Cell-Titer Glo Cell Growth Inhibition Assay, HT29; type: cell-based; conditions: Homo sapiens, HT-29, CellTiter-Glo, 72 h, read-out: CTG HT29 IC50
Method: as §1

Row | Compound | IC50 (Colo 205) | IC50 (MX-1) | IC50 (SKOV3) | IC50 (HCT116) | IC50 (P388) | IC50 (A549-L) | IC50 (RKO) | IC50 (HCT-116) | IC50 (HT29)
1 | C[C@@H](Oc1cc(-n2cnc3cc(-c4ccc(N5CCNCC5)nc4)ccc32)sc1C(N)=O)c1ccccc1C(F)(F)F [Example 1, 5-{5-[6-(1-piperazinyl)-3-pyridinyl]-1H-benzimidazol-1-yl}-3-({(1R)-1-[2-(trifluoromethyl)phenyl]ethyl}oxy)-2-thiophenecarboxamide] | < 0.1 µM | < 0.1 µM | 0.1 to 1 µM | 0.1 to 1 µM | 0.1 to 1 µM | 0.1 to 1 µM | < 0.1 µM | < 0.1 µM | < 0.1 µM
2 | C[C@@H](Oc1cc(-n2cnc3cc(-c4ccc(N5CCNCC5)nc4)ccc32)sc1C(N)=O)c1ccccc1Cl [Example 7, 3-{[(1R)-1-(2-Chlorophenyl)ethyl]oxy}-5-{5-[6-(1-piperazinyl)-3-pyridinyl]-1H-benzimidazol-1-yl}-2-thiophenecarboxamide] | < 0.1 µM | 0.1 to 1 µM | 0.1 to 1 µM | 0.1 to 1 µM | < 0.1 µM | < 0.1 µM | < 0.1 µM | < 0.1 µM | < 0.1 µM
3 | C[C@@H](Oc1cc(-n2cnc3cc(-c4cnn(C)c4)ccc32)sc1C(N)=O)c1ccccc1Cl [Example 9, 3-{[(1R)-1-(2-Chlorophenyl)ethyl]oxy}-5-[5-(1-methyl-1H-pyrazol-4-yl)-1H-benzimidazol-1-yl]-2-thiophenecarboxamide] | < 0.1 µM | < 0.1 µM | < 0.1 µM | < 0.1 µM | 0.1 to 1 µM | < 0.1 µM | < 0.1 µM | < 0.1 µM | < 0.1 µM
